Measurements taken from patent US20250098679A1, “HERBICIDAL PYRIDONE DERIVATIVES” (SYNGENTA CROP PROTECTION AG, priority 2021, published 2025).

Legend:
Type in all cases: in vivo
Setaria faberi (SETFA) [1] = assay: Pre-emergence Test, Setaria faberi (SETFA); details: 1000 g/ha, evaluated after 13 days
[2] = system: Echinochloa crus-galli (ECHCG); assay: Pre-emergence Test, Echinochloa crus-galli (ECHCG); details: 1000 g/ha, evaluated after 13 days
Zea mays (ZEAMX) [3] = assay: Pre-emergence Test, Zea mays (ZEAMX); details: 1000 g/ha, evaluated after 13 days
[4] = system: Ipomoea hederacea (IPOHE); assay: Pre-emergence Test, Ipomoea hederacea (IPOHE); details: 1000 g/ha, evaluated after 13 days
[5] = system: Amaranthus palmeri (AMAPA); assay: Pre-emergence Test, Amaranthus palmeri (AMAPA); details: 1000 g/ha, evaluated after 13 days
[6] = system: Amaranthus retoflexus (AMARE); assay: Pre-emergence Test, Amaranthus retoflexus (AMARE); details: 1000 g/ha, evaluated after 13 days
Setaria faberi (SETFA) [7] = assay: Post-emergence Test, Setaria faberi (SETFA); set-up: key to percentage damage caused to the plant, SETFA (five-point scale): 5=81-100%, 4=61-80%, 3=41-60%, 2=21-40%, 1=0-20% damage; details: evaluated after 13 days
Outline: (§1)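 Scores are percentage plant damage on a 1–5 scale (1=0-20%, 2=21-40%, 3=41-60%, 4=61-80%, 5=81-100%), read 13 days after treatment. Pots received a spray at 1000 g/ha unless otherwise stated, formulated in acetone/water (50:50) containing 0.5% Tween 20.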

[8] = system: Echinochloa crus-galli (ECHCG); assay: Post-emergence Test, Echinochloa crus-galli (ECHCG); set-up: key to percentage damage caused to the plant, ECHCG (five-point scale): 5=81-100%, 4=61-80%, 3=41-60%, 2=21-40%, 1=0-20% damage; details: evaluated after 13 days
Outline: as §1

Zea mays (ZEAMX) [9] = assay: Post-emergence Test, Zea mays (ZEAMX); set-up: key to percentage damage caused to the plant, ZEAMX (five-point scale): 5=81-100%, 4=61-80%, 3=41-60%, 2=21-40%, 1=0-20% damage; details: evaluated after 13 days
Outline: as §1

[10] = system: Ipomoea hederacea (IPOHE); assay: Post-emergence Test, Ipomoea hederacea (IPOHE); set-up: key to percentage damage caused to the plant, IPOHE (five-point scale): 5=81-100%, 4=61-80%, 3=41-60%, 2=21-40%, 1=0-20% damage; details: evaluated after 13 days
Outline: as §1

[11] = system: Amaranthus palmeri (AMAPA); assay: Post-emergence Test, Amaranthus palmeri (AMAPA); set-up: key: 5=81-100%, 4=61-80%, 3=41-60%, 2=21-40%, 1=0-20% damage; details: evaluated after 13 days
Outline: as §1

[12] = system: Amaranthus retoflexus (AMARE); assay: Post-emergence Test, Amaranthus retoflexus (AMARE); set-up: key to percentage damage caused to the plant, AMARE (five-point scale): 5=81-100%, 4=61-80%, 3=41-60%, 2=21-40%, 1=0-20% damage; details: evaluated after 13 days
Outline: as §1

Compound	Pre-emergence Test SETFA, percentage damage caused to the plant (five-point scale) (Setaria faberi (SETFA) [1])	Pre-emergence Test ECHCG, percentage damage caused to the plant (five-point scale) [2]	Pre-emergence Test ZEAMX, percentage damage caused to the plant (five-point scale) (Zea mays (ZEAMX) [3])	Pre-emergence Test IPOHE, percentage damage caused to the plant (five-point scale) [4]	Pre-emergence Test AMAPA, percentage damage caused to the plant (five-point scale) [5]	Pre-emergence Test AMARE, percentage damage caused to the plant (five-point scale) [6]	percentage damage caused to the plant, SETFA (five-point scale) (Setaria faberi (SETFA) [7]; 250 g/Ha)	percentage damage caused to the plant, SETFA (five-point scale) (Setaria faberi (SETFA) [7]; 1000 g/ha)	percentage damage caused to the plant, ECHCG (five-point scale) ([8]; 250 g/Ha)	percentage damage caused to the plant, ECHCG (five-point scale) ([8]; 1000 g/ha)	percentage damage caused to the plant, ZEAMX (five-point scale) (Zea mays (ZEAMX) [9]; 250 g/Ha)	percentage damage caused to the plant, ZEAMX (five-point scale) (Zea mays (ZEAMX) [9]; 1000 g/ha)	percentage damage caused to the plant, IPOHE (five-point scale) ([10]; 250 g/Ha)	percentage damage caused to the plant, IPOHE (five-point scale) ([10]; 1000 g/ha)	percentage damage caused to the plant, AMAPA (five-point scale) ([11]; 250 g/Ha)	percentage damage caused to the plant, AMAPA (five-point scale) ([11]; 1000 g/ha)	percentage damage caused to the plant, AMARE (five-point scale) ([12]; 250 g/Ha)	percentage damage caused to the plant, AMARE (five-point scale) ([12]; 1000 g/ha)
CCn1c(Cn2ccc(OC)n2)cc(=O)c(C(=O)O)c1-c1ccc(Cl)c(Cl)c1 [Compound 38, 2-(3,4-dichlorophenyl)-1-ethyl-6-[(3-methoxypyrazol-1-yl)methyl]-4-oxo-pyridine-3-carboxylic acid]	5 (5=81-100%)	5 (5=81-100%)	5 (5=81-100%)	4 (4=61-80%)	3 (3=41-60%)	2 (2=21-40%)	4 (4=61-80%)	4 (4=61-80%)	3 (3=41-60%)	4 (4=61-80%)	2 (2=21-40%)	4 (4=61-80%)	4 (4=61-80%)	3 (3=41-60%)	1 (1=0-20%)	4 (4=61-80%)	2 (2=21-40%)	4 (4=61-80%)
CCn1c(Cn2nc(C)cc2C)cc(=O)c(C(=O)O)c1-c1ccc(Cl)c(Cl)c1 [Compound 39, 2-(3,4-dichlorophenyl)-6-[(3,5-dimethylpyrazol-1-yl)methyl]-1-ethyl-4-oxo-pyridine-3-carboxylic acid]	3 (3=41-60%)	4 (4=61-80%)	0	2 (2=21-40%)	1 (1=0-20%)	1 (1=0-20%)	1 (1=0-20%)	4 (4=61-80%)	3 (3=41-60%)	4 (4=61-80%)	0	4 (4=61-80%)	2 (2=21-40%)	2 (2=21-40%)	1 (1=0-20%)	2 (2=21-40%)	2 (2=21-40%)	2 (2=21-40%)
CCn1c(Cn2cc(C(=O)OC)cn2)cc(=O)c(C(=O)O)c1-c1ccc(Cl)c(Cl)c1 [Compound 40, 2-(3,4-dichlorophenyl)-1-ethyl-6-[(4-methoxycarbonylpyrazol-1-yl)methyl]-4-oxo-pyridine-3-carboxylic acid]	1 (1=0-20%)	0	0	2 (2=21-40%)	3 (3=41-60%)	1 (1=0-20%)	0	1 (1=0-20%)	1 (1=0-20%)	0	0	2 (2=21-40%)	0	2 (2=21-40%)	0	1 (1=0-20%)	1 (1=0-20%)	0
CCn1c(Cn2cnc(OC)n2)cc(=O)c(C(=O)O)c1-c1ccc(Cl)c(Cl)c1 [Compound 44, 2-(3,4-dichlorophenyl)-1-ethyl-6-[(3-methoxy-1,2,4-triazol-1-yl)methyl]-4-oxo-pyridine-3-carboxylic acid]	1 (1=0-20%)	2 (2=21-40%)	0	1 (1=0-20%)	3 (3=41-60%)	2 (2=21-40%)		1 (1=0-20%)		1 (1=0-20%)		1 (1=0-20%)		2 (2=21-40%)		3 (3=41-60%)		0
CCn1c(Cn2ccnn2)cc(=O)c(C(=O)O)c1-c1ccc(Cl)c(Cl)c1 [Compound 45, 2-(3,4-dichlorophenyl)-1-ethyl-4-oxo-6-(triazol-1-ylmethyl)pyridine-3-carboxylic acid]	1 (1=0-20%)	4 (4=61-80%)	0	0	1 (1=0-20%)	0		1 (1=0-20%)		1 (1=0-20%)		0		0		1 (1=0-20%)		0
CCn1c(Cn2nccn2)cc(=O)c(C(=O)O)c1-c1ccc(Cl)c(Cl)c1 [Compound 48, 2-(3,4-dichlorophenyl)-1-ethyl-4-oxo-6-(triazol-2-ylmethyl)pyridine-3-carboxylic acid]	5 (5=81-100%)	5 (5=81-100%)	0	0	1 (1=0-20%)	0	4 (4=61-80%)	4 (4=61-80%)	3 (3=41-60%)	5 (5=81-100%)	0	3 (3=41-60%)	4 (4=61-80%)	2 (2=21-40%)	1 (1=0-20%)	3 (3=41-60%)	1 (1=0-20%)	0
